Test [1] addresses T1, ABHD6 (Mus musculus, UniProt Q8R2Y0).
T1 construct: Proteomes (mouse brain membrane fraction or cell lysates); from tissue; host or cells: mouse brain membrane fraction (or unspecified cell lysates)
T1 sequence (Q8R2Y0 1-336): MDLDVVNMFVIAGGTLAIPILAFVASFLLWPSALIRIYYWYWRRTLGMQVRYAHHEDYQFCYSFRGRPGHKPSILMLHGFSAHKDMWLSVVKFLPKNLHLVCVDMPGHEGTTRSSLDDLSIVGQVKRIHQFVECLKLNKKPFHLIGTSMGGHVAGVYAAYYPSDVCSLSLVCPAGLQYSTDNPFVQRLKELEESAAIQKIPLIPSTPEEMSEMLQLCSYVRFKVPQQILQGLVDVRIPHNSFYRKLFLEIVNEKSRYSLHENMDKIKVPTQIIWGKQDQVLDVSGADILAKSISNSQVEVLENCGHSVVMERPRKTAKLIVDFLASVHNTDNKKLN
As to the kind of experiment: Mouse brain proteomes from inhibitor treated mice, ABHD6. It counts as in vivo. The settings on record: 5 mg/kg oral gavage, C57Bl/6J mice, brain proteome 4 h after administration. On the procedure: (§1) Preparation of Mouse Brain Proteomes from Inhibitor Treated Mice.
(§2) Inhibitors were administered to wild-type C57Bl/6J by oral gavage in a vehicle of polyethylene glycol.

Test [2] has as its target T2, FAAH (Mus musculus, UniProt O08914).
T2 construct: Proteomes (mouse brain membrane fraction or cell lysates); from tissue; host or cells: mouse brain membrane fraction (or unspecified cell lysates)
T2 sequence (O08914 1-579): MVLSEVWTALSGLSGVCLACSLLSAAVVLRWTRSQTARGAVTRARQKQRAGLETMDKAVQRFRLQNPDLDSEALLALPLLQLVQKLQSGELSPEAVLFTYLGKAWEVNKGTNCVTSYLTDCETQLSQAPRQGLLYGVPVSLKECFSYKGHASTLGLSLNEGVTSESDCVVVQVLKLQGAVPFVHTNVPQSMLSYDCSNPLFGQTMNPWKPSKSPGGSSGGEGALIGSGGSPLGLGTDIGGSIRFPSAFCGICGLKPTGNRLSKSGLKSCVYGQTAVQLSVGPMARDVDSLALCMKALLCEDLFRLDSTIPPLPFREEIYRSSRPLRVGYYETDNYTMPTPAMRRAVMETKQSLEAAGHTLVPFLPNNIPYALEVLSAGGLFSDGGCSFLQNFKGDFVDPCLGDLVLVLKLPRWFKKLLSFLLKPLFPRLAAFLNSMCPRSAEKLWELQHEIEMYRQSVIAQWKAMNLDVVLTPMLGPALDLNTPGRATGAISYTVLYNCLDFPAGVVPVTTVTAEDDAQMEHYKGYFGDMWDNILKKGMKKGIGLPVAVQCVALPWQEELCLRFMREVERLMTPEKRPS
As to the kind of experiment: In vitro competitive activity-based protein profiling (mouse), FAAH. It is filed as biochemical. The settings on record: for inhibition at 1 µM: mouse proteome, in vitro; for IC50: mouse brain membrane fraction or cell lysates, 30 min preincubation at 37° C, FP-Rh probe. Summed up:
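Competitive ABPP: inhibitor exposure (30 min, 37° C) of mouse brain membrane or lysate proteome at 1.0 mg/mL, then labelling with FP-Rh for another 30 min. Activity quantified by in-gel fluorescence of FAAH bands after SDS-PAGE.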

The target of test [3] is T2, FAAH. The experiment in a line: Mouse brain proteomes from inhibitor treated mice, FAAH. It counts as in vivo. The settings on record: 5 mg/kg oral gavage, C57Bl/6J mice, brain proteome 4 h after administration. The procedure:
as §1
Inhibitors were administered to wild-type C57Bl/6J by oral gavage in a vehicle of polyethylene glycol. Each animal was sacrificed 4 h following administration and brain proteomes were prepared and analyzed according to previously established methods (See Niphakis, M. J., et al. (2011) ACS Chem. Neurosci. and Long, J. Z., et al. Nat. Chem. Biol. 5:37-44)

Test [4] addresses T3, MAGL (Mus musculus, UniProt O35678).
T3 construct: Proteomes (mouse brain membrane fraction or cell lysates); from tissue; host or cells: mouse brain membrane fraction (or unspecified cell lysates)
T3 sequence (O35678 1-303): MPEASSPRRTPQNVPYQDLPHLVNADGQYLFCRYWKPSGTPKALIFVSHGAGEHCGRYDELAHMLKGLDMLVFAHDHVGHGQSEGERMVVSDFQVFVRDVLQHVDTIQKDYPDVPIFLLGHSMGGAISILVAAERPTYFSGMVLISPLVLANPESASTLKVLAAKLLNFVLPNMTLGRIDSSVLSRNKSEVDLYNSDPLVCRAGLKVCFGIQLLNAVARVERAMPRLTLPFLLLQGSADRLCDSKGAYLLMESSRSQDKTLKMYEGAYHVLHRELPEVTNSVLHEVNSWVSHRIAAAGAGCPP
As to the kind of experiment: Mouse brain proteomes from inhibitor treated mice, MAGL. It is filed as in vivo. The note with it: 5 mg/kg oral gavage, C57Bl/6J mice, brain proteome 4 h after administration. The procedure:
as §1, §2

The target in test [5] is T3, MAGL. The experiment in a line: In vitro competitive activity-based protein profiling (mouse), MAGL. It is filed as biochemical. The settings on record: for inhibition at 1 µM: mouse proteome, in vitro, read-out: % Inhibition at 1 μM MAGL; for IC50: mouse brain membrane fraction or cell lysates, 30 min preincubation at 37° C, FP-Rh probe. On the procedure:
(§3) In Vitro Competitive Activity-Based Protein Profiling (Mouse).
(§4) Proteomes (mouse brain membrane fraction or cell lysates) (50 μL, 1.0 mg/mL total protein concentration) were preincubated with varying concentrations of inhibitors at 37° C. After 30 min, FP-Rh (1.0 μL, 50 μM in DMSO) was added and the mixture was incubated for another 30 min at 37° C. Reactions were quenched with SDS loading buffer (50 μL-4×) and run on SDS-PAGE.

In test [6] the target is T1, ABHD6. As to the kind of experiment: In vitro competitive activity-based protein profiling (mouse), ABHD6. It counts as biochemical. The settings on record: for inhibition at 1 µM: mouse proteome, in vitro, read-out: % Inhibition at 1 μM ABHD6; for IC50: mouse brain membrane fraction or cell lysates, 30 min preincubation at 37° C, FP-Rh probe. The procedure:
as §3, §4

Structures are written as SMILES.

In general, inhibition refers to the percentage by which the read-out fell short of the control. For orientation: IC50 means the concentration that gives 50% inhibition.

Consider `O=C(OC(C(F)(F)F)C(F)(F)F)N1CCN(Cc2ccc(C(F)(F)F)cc2N2CC[C@H](CF)C2)CC1` [Example 54, 1,1,1,3,3,3-hexafluoropropan-2-yl (S)-4-(2-(3-(fluoromethyl)pyrrolidin-1-yl)-4-(trifluoromethyl)benzyl)piperazine-1-carboxylate], for which the results for the inhibition at 5 mg/kg against ABHD6 [1], at FAAH [3] and against MAGL [4] were below 25%, below 25% and above 75%, respectively. The inhibition at 1 µM on FAAH [2] is below 25%; on MAGL [5], above 75%; on ABHD6 [6], below 25%. The IC50 on FAAH [2] was above 1000 nM; at MAGL [5], below 100 nM; at ABHD6 [6], above 1000 nM.

In the case of `O=C(OC(C(F)(F)F)C(F)(F)F)N1CCN(Cc2cccc(Cl)c2N2CC[C@H](CF)C2)CC1` [Example 55, 1,1,1,3,3,3-hexafluoropropan-2-yl (S)-4-(3-chloro-2-(3-(fluoromethyl)pyrrolidin-1-yl)benzyl)piperazine-1-carboxylate], the inhibition at 5 mg/kg at ABHD6 [1] was below 25%; at FAAH [3] it was below 25%; at MAGL [4] it was above 75%. The inhibition at 1 µM at FAAH [2] was below 25%; on MAGL [5], above 75%; at ABHD6 [6] it was below 25%. Moreover, the IC50 on FAAH [2] was above 1000 nM; at MAGL [5] it was below 100 nM; at ABHD6 [6] it was above 1000 nM.

For the compound `Cc1cccc(CN2CCN(C(=O)OC(C(F)(F)F)C(F)(F)F)CC2)c1N1CC[C@H](CF)C1` [Example 56, 1,1,1,3,3,3-hexafluoropropan-2-yl (S)-4-(2-(3-(fluoromethyl)pyrrolidin-1-yl)-3-methylbenzyl)piperazine-1-carboxylate], the values for the inhibition at 5 mg/kg against ABHD6 [1], against FAAH [3] and against MAGL [4] were below 25%, below 25% and above 75%, respectively. Further, the values for the inhibition at 1 µM on FAAH [2], at MAGL [5] and on ABHD6 [6] were below 25%, above 75% and below 25%, respectively. The IC50 on FAAH [2] is above 1000 nM; on MAGL [5], below 100 nM; at ABHD6 [6], above 1000 nM.

With `O=C(OC(C(F)(F)F)C(F)(F)F)N1CCN(Cc2cccc(Cl)c2N2CC3CCC(C2)O3)CC1` [Example 57, 1,1,1,3,3,3-hexafluoropropan-2-yl 4-(2-(8-oxa-3-azabicyclo[3.2.1]octan-3-yl)-3-chlorobenzyl)piperazine-1-carboxylate], the inhibition at 5 mg/kg against ABHD6 [1] is below 25%; against FAAH [3], below 25%; against MAGL [4], above 75%. Further, the inhibition at 1 µM at FAAH [2] was below 25%; at MAGL [5] it was above 75%; at ABHD6 [6], below 25%. Besides, the IC50 on FAAH [2] was above 1000 nM; on MAGL [5] it was below 100 nM; on ABHD6 [6], above 1000 nM.

Regarding `CS(=O)(=O)N[C@@H]1CCN(c2cc(C(F)(F)F)ccc2CN2CCN(C(=O)OC(C(F)(F)F)C(F)(F)F)CC2)C1` [Example 60, 1,1,1,3,3,3-hexafluoropropan-2-yl (R)-4-(2-(3-(methylsulfonamido)pyrrolidin-1-yl)-4-(trifluoromethyl)benzyl)piperazine-1-carboxylate], the inhibition at 5 mg/kg was below 25% on ABHD6 [1], below 25% against FAAH [3] and above 75% on MAGL [4]. Further, the inhibition at 1 µM is below 25% at FAAH [2], above 75% on MAGL [5] and below 25% on ABHD6 [6]. In addition, the figures for the IC50 on FAAH [2], on MAGL [5] and at ABHD6 [6] were above 1000 nM, below 100 nM and above 1000 nM, respectively.

In the case of `CS(=O)(=O)N[C@H]1CCN(c2cc(C(F)(F)F)ccc2CN2CCN(C(=O)OC(C(F)(F)F)C(F)(F)F)CC2)C1` [Example 61, 1,1,1,3,3,3-hexafluoropropan-2-yl (S)-4-(2-(3-(methylsulfonamido)pyrrolidin-1-yl)-4-(trifluoromethyl)benzyl)piperazine-1-carboxylate], the results for the inhibition at 5 mg/kg on ABHD6 [1], at FAAH [3] and against MAGL [4] were below 25%, below 25% and above 75%, respectively. Also, the inhibition at 1 µM at FAAH [2] is below 25%; on MAGL [5], above 75%; at ABHD6 [6], below 25%. The results for the IC50 on FAAH [2], at MAGL [5] and at ABHD6 [6] were above 1000 nM, below 100 nM and above 1000 nM, respectively.

As for `O=C(OC(C(F)(F)F)C(F)(F)F)N1CCN(Cc2ccc(C(F)(F)F)cc2N2CC3CN(C4CC4)CC3C2)CC1` (stereo not drawn) [Example 65, 1,1,1,3,3,3-hexafluoropropan-2-yl 4-(2-(5-cyclopropylhexahydropyrrolo[3,4-c]pyrrol-2(1H)-yl)-4-(trifluoromethyl)benzyl)piperazine-1-carboxylate], the inhibition at 5 mg/kg on ABHD6 [1], against FAAH [3] and on MAGL [4] was below 25% each time. The inhibition at 1 µM is below 25% at FAAH [2], above 75% on MAGL [5] and 25 to 75% on ABHD6 [6]. For the same compound, the IC50 is above 1000 nM at FAAH [2], below 100 nM on MAGL [5] and above 1000 nM on ABHD6 [6].

As to `O=C(OC(C(F)(F)F)C(F)(F)F)N1CCN(Cc2ccc(C(F)(F)F)cc2N2CCCC2CO)CC1` (stereo not drawn) [Example 71, 1,1,1,3,3,3-hexafluoropropan-2-yl 4-(2-(2-(hydroxymethyl)pyrrolidin-1-yl)-4-(trifluoromethyl)benzyl)piperazine-1-carboxylate], the inhibition at 5 mg/kg is below 25% against ABHD6 [1], below 25% at FAAH [3] and above 75% at MAGL [4]. Also, the inhibition at 1 µM at FAAH [2] was below 25%; on MAGL [5] it was above 75%; on ABHD6 [6] it was below 25%. Besides, the values for the 50% inhibitory concentration (IC50) on FAAH [2], on MAGL [5] and at ABHD6 [6] were above 1000 nM, below 100 nM and above 1000 nM, respectively.

Consider `O=C(OC(C(F)(F)F)C(F)(F)F)N1CCN(Cc2ccc(C(F)(F)F)cc2N2CCC(CO)CC2)CC1` [Example 74, 1,1,1,3,3,3-hexafluoropropan-2-yl 4-(2-(4-(hydroxymethyl)piperidin-1-yl)-4-(trifluoromethyl)benzyl)piperazine-1-carboxylate], for which the results for the inhibition at 5 mg/kg against ABHD6 [1], against FAAH [3] and on MAGL [4] were below 25%, below 25% and 25 to 75%, respectively. Moreover, the inhibition at 1 µM on FAAH [2] is below 25%; on MAGL [5], above 75%; at ABHD6 [6] it was below 25%. The results for the IC50 on FAAH [2], at MAGL [5] and at ABHD6 [6] were above 1000 nM, below 100 nM and above 1000 nM, respectively.

These data come from patent publication US9771341B2, “Piperazine carbamates and methods of making and using same” (Abide Therapeutics, Inc., priority 2015, dated 2017).
